Source: US12428378B2, “Methods and materials for increasing level of phosphorylated AMPK protein” (University of Pittsburgh—Of the Commonwealth System of …, priority 2019, dated 2025)
Values joined by “and” are separate entries in the source; they are usually repeats but may differ in a detail not shown here. Identical values can stand only once. Like-named read-outs stand apart in the source and are kept apart here.

Tests used:
pAMPK = pAMPK immunostaining chemiluminescence assay in Beas2B cells; assay type: cell-based; conditions: Homo sapiens, BEAS-2B, 18 h, DMEM no glucose media, compounds 3-34, 36-44, 47-60 tested as HCl salts, read-out: efficacy (minimal compound concentration needed to increase pAMPK by 30%)
[1] = system: methicillin resistant Staphylococcus aureus (strain ATCC 33591); experiment: Antimicrobial efficacy against MRSA lung infection in neutropenic BALB/c mice; assay type: in vivo; conditions: 25 mg/kg orally once a day, days -4 to 0; lungs 24 hours after inoculation; p<0.01 compared to vehicle
Description: Groups of 5-10 female BALB/c mice weighing 20±2 g were used in this study. Animals were rendered immune suppressed by treatment with 250 mg/kg of cyclophosphamide IP at 4 and 2 days before infection (Day −4 and −2). Vehicle 10% DMA (N,N-dimethylacetamide):40% PEG300:50% H2O) and/or test substances were administered on days −4, −3, −2, −1 and 0.
On day 0, immediately following the final dose, animals were inoculated intranasally (0.02 mL/lung) with 1-5×10^6 colony forming units (CFU)/mouse of MRSA (ATCC 33591) after being anaesthetized by etomidate (20 mg/kg dose, IV). In addition, following the final dose, blood was collected at 0, 0.5 h, 1 h, 2 h, 4 h and 24 h from three animals of each group, via facial veins. Terminal blood samples were taken by cardiac puncture. Blood samples were drawn into K2EDTA anti-coagulant coated mini collection tubes. The blood was collected from group 1 after sacrifice as the blank for PK analysis. Samples were stored on ice for no more than one hour then centrifuged at 2500×g for 15 min at 4° C. Plasma (˜50 μL) was stored at −80° C. until analysis.
At 24 hours after inoculation, the animals were humanely euthanized with CO2 asphyxiation, and the lung tissue was harvested from each of the test animals. The tissues were homogenized in 1 mL of PBS. […]

[2] = Plasma exposure and PK of compound 63 in mouse plasma (HPLC-MS/MS); assay type: in vivo

- Sample concentration, individual animals ([2]; 25 mg/kg PO QD x 5, time 0 h, 25 mg/kg): 3 ng/mL and 0 ng/mL (2×)
- Sample concentration, individual animals ([2]; 25 mg/kg PO QD x 5, time 0.5 h, 25 mg/kg): 180 ng/mL and 243 ng/mL and 390 ng/mL
- Sample concentration, individual animals ([2]; 25 mg/kg PO QD x 5, time 1 h, 25 mg/kg): 95 ng/mL and 120 ng/mL
- Sample concentration, individual animals ([2]; 25 mg/kg PO QD x 5, time 2 h, 25 mg/kg): 16 ng/mL and 36 ng/mL and 31 ng/mL
- Sample concentration, individual animals ([2]; 25 mg/kg PO QD x 5, time 4 h, 25 mg/kg): 22 ng/mL and 38 ng/mL and 18 ng/mL
- Sample concentration, individual animals ([2]; 25 mg/kg PO QD x 5, time 24 h, 25 mg/kg): 7 ng/mL and 0 ng/mL and 3 ng/mL
- AUC(0-inf) ([2]; BALB/c, dose PO 25 mg/kg): 622 ng·h/mL
- AUC(0-t) ([2]; BALB/c, dose PO 25 mg/kg): 593 ng·h/mL
- Cmax ([2]; BALB/c, dose PO 25 mg/kg): 271 ng/mL
- Tmax ([2]; BALB/c, dose PO 25 mg/kg): 30 min
- concentration at 0 h ([2]; BALB/c, mouse, plasma, po, 25 mg/kg, 25 mg/kg PO QD x 5, time 0 h, excluded from the PK calculation, read-out: Sample concentration, mean): 1 ng/mL
- concentration at 0.5 h ([2]; BALB/c, mouse, plasma, po, 25 mg/kg, 25 mg/kg PO QD x 5, time 0.5 h, read-out: Sample concentration, mean): 271 ng/mL
- concentration at 1 h ([2]; BALB/c, mouse, plasma, po, 25 mg/kg, 25 mg/kg PO QD x 5, time 1 h, read-out: Sample concentration, individual animals): 184 ng/mL
- concentration at 1 h ([2]; BALB/c, mouse, plasma, po, 25 mg/kg, 25 mg/kg PO QD x 5, time 1 h, read-out: Sample concentration, mean): 133 ng/mL
- concentration at 2 h ([2]; BALB/c, mouse, plasma, po, 25 mg/kg, 25 mg/kg PO QD x 5, time 2 h, read-out: Sample concentration, mean): 28 ng/mL
- concentration at 4 h ([2]; BALB/c, mouse, plasma, po, 25 mg/kg, 25 mg/kg PO QD x 5, time 4 h, read-out: Sample concentration, mean): 26 ng/mL
- concentration at 24 h ([2]; BALB/c, mouse, plasma, po, 25 mg/kg, 25 mg/kg PO QD x 5, time 24 h, read-out: Sample concentration, mean): 3 ng/mL
- AUC/D ([2]; dose PO 25 mg/kg): 25 kg·ng·h/mL/mg
- AUCExtr ([2]; dose PO 25 mg/kg): 5%
- MTR ([2]; dose PO 25 mg/kg): 4.96 h
Compound: Cc1ccccc1CN(CCCOc1ccc(C(F)(F)F)cc1)Cc1cccnc1 [compound 63]
- EC (30% increase) (pAMPK): ≤ 1 µM
- clearance of MRSA from the lung (CFU) [1]: cleared MRSA from the lung
